# Measurements published in patent publication US12329158B2, “Large-scale methods of uniformly coating packaging surfaces with a volatile antimicrobial to preserve food freshness” (AGROFRESH INC., priority 2013, dated 2025).
# Read-outs that look alike come from different tables or passages of the source.
# Legend:
# Botrytis cinerea [1] = assay: Dose response, sprayed clamshells; strawberries (Example 4); assay type: in vivo; conditions: spraying
# Description: Five milligrams of Compound A was dissolved in 1 ml of ethanol prior to being uniformly administered to the interior of the clamshell by painting or spraying, and then dried for 5 minutes. After coating the clamshells with Compound A using various application techniques (i.e., sublimation, spraying, or painting), eight ethanol-washed strawberries were placed in the clamshell with stem end facing downwards. Each strawberry fruit was wounded using a T15 screwdriver tip to a uniform depth of eight mm (8 mm). […] Uninoculated strawberries were removed from their commercial package, and directly transferred into treated clamshells without any washing or inoculation steps.
# Treated clamshells lids were closed, and then placed at 1° C. for an initial time period of 5 days. Clamshells were then removed from low temperature, and held for a second time period of 6 days at room temperature where the point of inoculation on the strawberry fruits was assessed for indication of disease incidence reported as a percentage (%). Severity of disease incidence was also reported.
# This in vivo assay was used to evaluate the ability of different concentrations of Compound A to volatilize from clamshell in order to control or inhibit fruit infection by pathogenic microorganism, Botrytis cinerea. This experiment was conducted exactly as described in Example 1, with a few exceptions. After equilibrating the clamshell overnight at 21° C., Compound A was administered to the clamshells by spraying only. Compound A was sprayed onto the surface of the clamshells at a final treatment rate of 5 mg/clamshell or 1 mg/clamshell. The clamshells were then permitted to dry for 5 minutes. Strawberries were inoculated with Botrytis cinerea, placed within the clamshells for the initial time period (i.e., 5 days), and assessed for disease incidence and severity over the second time period (i.e., 6 days) as described in Example 1.
# Penicillium expansum = assay: Blue mold on apple and pear, volatile assay (Example 25); conditions: 50 mg/L, day 3 at 21 C after 5 days at 1 C
# Description: Two apples, pears or oranges are placed in a clamshell, and three fresh wounds are made near the equatorial region of each fruit. Each fruit wound is then inoculated with 20 μL of 1×10^6 spores per mL of Penicillium expansum or digitatum suspension, respectively. The inoculum is allowed to dry for two hours prior to treatment application as a volatile or contact.
# Volatile Assay: Clamshells are then placed at the bottom of a 2.55-L SnapWare airtight container (Model #109842). […] The solutions are pipetted into Whatman filter disks mounted to the inside lid of the container. The chambers are then incubated at 1° C. for 5 days, removed to 21° C., and evaluated on day 3 by determining the diameter (mm) of rot development (browning) or sporulation.
# [2] = tested on: C. krusei (or I. orientalis); assay: In vitro volatile assay, yeast infection species (Example 27); assay type: cell-based, Issatchenkia orientalis; conditions: Pichia kudriavzevii
# Description: (§1) More specifically, growth inhibition of yeast infection fungal species C. albicans and C. krusei (or I. orientalis) by volatile treatment of Compound 10 was assessed via a volatile assay.
# (§2) Volatile assay: 6-well (16.5 mL volume per well) microtiter plates are used in an in vitro inhibition assay for Compound 10 (i.e., Compound A). A 7.5-mL volume of half strength PDA is added to each well. After drying, a mycelial plug (5 mm diameter) is aseptically obtained from actively growing cultures of C. albicans and C. krusei (or I. orientalis) and placed at the center of the plate with the mycelial side in contact with the agar. A Whatman #1 filter disk (Cat. No. 1001-325) is placed, in duplicate, on the underside of a polyethylene PCR plate sealing film. […] The acetone/methanol is permitted to evaporate for 5 minutes. The headspace around the inoculum is then sealed inside the well by the film with the adhering disk containing the fungicide and incubated inverted for 5 days at 28° C.
# C. albicans = assay: as above; assay type: cell-based; conditions: Candida albicans
# Description: as §1, §2
# Botrytis cinerea [3] = assay: Gray mold on strawberry, volatile assay (Example 23); assay type: in vivo
# Description: Eight strawberries (per repetition, in triplicate) are placed in an industry standard 1-lb PET clamshell with the stem-end facing down.
# Compound A is mixed acetone and 250 μL of the mixture is pipetted into a small glass tube. […] After incubation, fruits are evaluated for disease (scale 0 to 4, with ≤1 indicating marketable fruit and 4 indicating ≥50% of fruit surface covered by pathogen) up to 4 days at 21° C.
# [4] = Inoculated Fruit, 1 mg/clamshell, Day 0
# [5] = Inoculated Fruit, 1 mg/clamshell, Day 1
# [6] = Inoculated Fruit, 1 mg/clamshell, Day 2
# [7] = Inoculated Fruit, 1 mg/clamshell, Day 3
# [8] = Inoculated Fruit, 1 mg/clamshell, Day 4
# [9] = Inoculated Fruit, 1 mg/clamshell, Day 5
# [10] = Inoculated Fruit, 1 mg/clamshell, Day 6
# [11] = Inoculated Fruit, 5 mg/clamshell, Day 0
# [12] = Inoculated Fruit, 5 mg/clamshell, Day 1
# [13] = Inoculated Fruit, 5 mg/clamshell, Day 2
# [14] = Inoculated Fruit, 5 mg/clamshell, Day 3
# [15] = Inoculated Fruit, 5 mg/clamshell, Day 4
# [16] = Inoculated Fruit, 5 mg/clamshell, Day 5
# [17] = Inoculated Fruit, 5 mg/clamshell, Day 6
# [18] = Uninoculated Fruit, 5 mg/clamshell, Day 0
# [19] = Uninoculated Fruit, 5 mg/clamshell, Day 1
# [20] = Uninoculated Fruit, 5 mg/clamshell, Day 2
# [21] = Uninoculated Fruit, 5 mg/clamshell, Day 6
smiles,measurement,setting,value
"OB1OCc2cc(F)ccc21 [Compound A, 5-fluoro-1,3-dihydro-1-hydroxy-2,1-benzoxaborole]",Gray Mold Incidence (%),Botrytis cinerea [1]; [4],0.0%
same,Gray Mold Severity (0-4),Botrytis cinerea [1]; [4],0.0
same,Gray Mold Incidence (%),Botrytis cinerea [1]; [5],0.0%
same,Gray Mold Severity (0-4),Botrytis cinerea [1]; [5],0.0
same,Gray Mold Incidence (%),Botrytis cinerea [1]; [6],1.3%
same,Gray Mold Severity (0-4),Botrytis cinerea [1]; [6],0.0
same,Gray Mold Incidence (%),Botrytis cinerea [1]; [7],3.8%
same,Gray Mold Severity (0-4),Botrytis cinerea [1]; [7],0.1
same,Gray Mold Incidence (%),Botrytis cinerea [1]; [8],11.3%
same,Gray Mold Severity (0-4),Botrytis cinerea [1]; [8],0.2
same,Gray Mold Incidence (%),Botrytis cinerea [1]; [9],36.3%
same,Gray Mold Severity (0-4),Botrytis cinerea [1]; [9],0.6
same,Gray Mold Incidence (%),Botrytis cinerea [1]; [10],52.5%
same,Gray Mold Severity (0-4),Botrytis cinerea [1]; [10],1.5
same,Gray Mold Incidence (%),Botrytis cinerea [1]; [11],0.0%
same,Gray Mold Severity (0-4),Botrytis cinerea [1]; [11],0.0
same,Gray Mold Incidence (%),Botrytis cinerea [1]; [12],0.0%
same,Gray Mold Severity (0-4),Botrytis cinerea [1]; [12],0.0
same,Gray Mold Incidence (%),Botrytis cinerea [1]; [13],0.0%
same,Gray Mold Severity (0-4),Botrytis cinerea [1]; [13],0.0
same,Gray Mold Incidence (%),Botrytis cinerea [1]; [14],0.0%
same,Gray Mold Severity (0-4),Botrytis cinerea [1]; [14],0.0
same,Gray Mold Incidence (%),Botrytis cinerea [1]; [15],0.0%
same,Gray Mold Severity (0-4),Botrytis cinerea [1]; [15],0.0
same,Gray Mold Incidence (%),Botrytis cinerea [1]; [16],0.0%
same,Gray Mold Severity (0-4),Botrytis cinerea [1]; [16],0.0
same,Gray Mold Incidence (%),Botrytis cinerea [1]; [17],0.0%
same,Gray Mold Severity (0-4),Botrytis cinerea [1]; [17],0.0
same,Gray Mold Incidence (%),"Botrytis cinerea [1]; Uninoculated Fruit, 1 mg/clamshell, Day 0",0.0%
same,Gray Mold Incidence (%),"Botrytis cinerea [1]; Uninoculated Fruit, 1 mg/clamshell, Day 1",1.9%
same,Gray Mold Incidence (%),"Botrytis cinerea [1]; Uninoculated Fruit, 1 mg/clamshell, Day 2",21.6%
same,Gray Mold Incidence (%),"Botrytis cinerea [1]; Uninoculated Fruit, 1 mg/clamshell, Day 3",89.5%
same,Gray Mold Incidence (%),"Botrytis cinerea [1]; Uninoculated Fruit, 1 mg/clamshell, Day 4",100.0%
same,Gray Mold Incidence (%),"Botrytis cinerea [1]; Uninoculated Fruit, 1 mg/clamshell, Day 5",100.0%
same,Gray Mold Incidence (%),"Botrytis cinerea [1]; Uninoculated Fruit, 1 mg/clamshell, Day 6",100.0%
same,Gray Mold Incidence (%),Botrytis cinerea [1]; [18],0.5%
same,Gray Mold Severity (0-4),Botrytis cinerea [1]; [18],0.1
same,Gray Mold Incidence (%),Botrytis cinerea [1]; [19],0.5%
same,Gray Mold Severity (0-4),Botrytis cinerea [1]; [19],0.1
same,Gray Mold Incidence (%),Botrytis cinerea [1]; [20],0.9%
same,Gray Mold Severity (0-4),Botrytis cinerea [1]; [20],0.3
same,Gray Mold Incidence (%),"Botrytis cinerea [1]; Uninoculated Fruit, 5 mg/clamshell, Day 3",3.3%
same,Gray Mold Incidence (%),"Botrytis cinerea [1]; Uninoculated Fruit, 5 mg/clamshell, Day 4",16.2%
same,Gray Mold Incidence (%),"Botrytis cinerea [1]; Uninoculated Fruit, 5 mg/clamshell, Day 5",31.9%
same,Gray Mold Incidence (%),Botrytis cinerea [1]; [21],78.5%
same,Gray Mold Severity (0-4),Botrytis cinerea [1]; [21],3.5
same,Apple Browning (mm),Penicillium expansum,0.4 mm
same,Apple Sporulation (mm),Penicillium expansum,0.0 mm
same,Pear Browning (mm),Penicillium expansum,5.7 mm
same,Pear Sporulation (mm),Penicillium expansum,0.0 mm
same,MIC,"[2]; 120 h, read-out: minimum inhibitory concentration (MIC) for C. krusei",35.7 µg/mL
same,inhibition at 0.017 µg/mL,"[2]; volatile, 0.017 mg/L, read-out: Growth Inhibition (%) C. krusei/I. orientalis",-1.3%
same,inhibition at 0.035 µg/mL,"[2]; volatile, 0.035 mg/L, read-out: Growth Inhibition (%) C. krusei/I. orientalis",-1.4%
same,inhibition at 0.07 µg/mL,"[2]; volatile, 0.07 mg/L, read-out: Growth Inhibition (%) C. krusei/I. orientalis",0.5%
same,inhibition at 0.1 µg/mL,"[2]; volatile, 0.1 mg/L, read-out: Growth Inhibition (%) C. krusei/I. orientalis",0.4%
same,inhibition at 0.3 µg/mL,"[2]; volatile, 0.3 mg/L, read-out: Growth Inhibition (%) C. krusei/I. orientalis",1.2%
same,inhibition at 0.6 µg/mL,"[2]; volatile, 0.6 mg/L, read-out: Growth Inhibition (%) C. krusei/I. orientalis",-5.2%
same,inhibition at […],"[2]; volatile, 1.1 mg/L, read-out: Growth Inhibition (%) C. krusei/I. orientalis",-0.2%
same,inhibition at […],"[2]; volatile, 2.2 mg/L, read-out: Growth Inhibition (%) C. krusei/I. orientalis",18.2%
same,inhibition at […],"[2]; volatile, 4.5 mg/L, read-out: Growth Inhibition (%) C. krusei/I. orientalis",22%
same,inhibition at […],"[2]; volatile, 8.9 mg/L, read-out: Growth Inhibition (%) C. krusei/I. orientalis",30.5%
same,inhibition at 0.017 µg/mL,"C. albicans; 0.017 mg/L, read-out: Growth Inhibition (%) C. albicans",2%
same,inhibition at 0.035 µg/mL,"C. albicans; 0.035 mg/L, read-out: Growth Inhibition (%) C. albicans",1.6%
same,inhibition at 0.07 µg/mL,"C. albicans; 0.07 mg/L, read-out: Growth Inhibition (%) C. albicans",7.9%
same,inhibition at 0.1 µg/mL,"C. albicans; 0.1 mg/L, read-out: Growth Inhibition (%) C. albicans",11.9%
same,inhibition at 0.3 µg/mL,"C. albicans; 0.3 mg/L, read-out: Growth Inhibition (%) C. albicans",18.5%
same,inhibition at 0.6 µg/mL,"C. albicans; 0.6 mg/L, read-out: Growth Inhibition (%) C. albicans",22.2%
same,inhibition at […],"C. albicans; 1.1 mg/L, read-out: Growth Inhibition (%) C. albicans",40.2%
same,inhibition at […],"C. albicans; 2.2 mg/L, read-out: Growth Inhibition (%) C. albicans",100%
same,inhibition at […],"C. albicans; 4.5 mg/L, read-out: Growth Inhibition (%) C. albicans",100%
same,inhibition at […],"C. albicans; 8.9 mg/L, read-out: Growth Inhibition (%) C. albicans",100%
same,MIC,"C. albicans; 120 h, 100% control, 5 days at 28 C, read-out: minimum inhibitory concentration (MIC) for C. albicans",2.2 µg/mL
same,Disease Severity (0 to 4),"Botrytis cinerea [3]; 0.02 mg/L, Day 0",0.0
same,Disease Severity (0 to 4),"Botrytis cinerea [3]; 0.02 mg/L, Day 1",0.0
same,Disease Severity (0 to 4),"Botrytis cinerea [3]; 0.02 mg/L, Day 2",0.1
same,Disease Severity (0 to 4),"Botrytis cinerea [3]; 0.02 mg/L, Day 3",0.2
same,Disease Severity (0 to 4),"Botrytis cinerea [3]; 0.02 mg/L, Day 4",0.7
same,Disease Severity (0 to 4),"Botrytis cinerea [3]; 0.1 mg/L, Day 0",0.0
same,Disease Severity (0 to 4),"Botrytis cinerea [3]; 0.1 mg/L, Day 1",0.0
same,Disease Severity (0 to 4),"Botrytis cinerea [3]; 0.1 mg/L, Day 2",0.0
same,Disease Severity (0 to 4),"Botrytis cinerea [3]; 0.1 mg/L, Day 3",0.0
same,Disease Severity (0 to 4),"Botrytis cinerea [3]; 0.1 mg/L, Day 4",0.0
same,Disease Severity (0 to 4),"Botrytis cinerea [3]; 0.5 mg/L, Day 0",0.0
same,Disease Severity (0 to 4),"Botrytis cinerea [3]; 0.5 mg/L, Day 1",0.0
same,Disease Severity (0 to 4),"Botrytis cinerea [3]; 0.5 mg/L, Day 2",0.0
same,Disease Severity (0 to 4),"Botrytis cinerea [3]; 0.5 mg/L, Day 3",0.0
same,Disease Severity (0 to 4),"Botrytis cinerea [3]; 0.5 mg/L, Day 4",0.0
same,Disease Severity (0 to 4),"Botrytis cinerea [3]; 2.5 mg/L, Day 0",0.0
same,Disease Severity (0 to 4),"Botrytis cinerea [3]; 2.5 mg/L, Day 1",0.0
same,Disease Severity (0 to 4),"Botrytis cinerea [3]; 2.5 mg/L, Day 2",0.0
same,Disease Severity (0 to 4),"Botrytis cinerea [3]; 2.5 mg/L, Day 3",0.0
same,Disease Severity (0 to 4),"Botrytis cinerea [3]; 2.5 mg/L, Day 4",0.0
